What was measured:
HIV-1IIIB [1] = test: Association of compound with concentrated virus (LC/MS/MS of viral pellets); type: binding; conditions: 500 nM, 2 hours
Description: To examine the potential of CMX157 to associate directly with virus, concentrated HIV-1IIIB (approximately 9.7×10^10 virus particles) is treated with 500 nM CMX157 or TFV for 2 hours. Following incubation, virus is pelleted to remove unbound compound, lysed with 70% ice cold methanol and centrifuged. Supernatants are analyzed in triplicate using LC/MS/MS (liquid chromatography/mass spectrometry). TFV, TFV mono- and diphosphate are separated by gradient, reverse phase, ion-paring chromatography and detected by positive ion electrospray. The levels of CMX157 associated with the viral pellets (≈37,000 molecules/virion) are much higher than the levels of TFV associated with viral pellets (≈100 molecules/virion).

HIV-1IIIB [2] = test: Two-drug combination antiviral assay in CEM cells (CPE), MacSynergy II; type: cell-based; conditions: in combination with CMX157, CEM-SS cells, 95% confidence
HIV-1IIIB [3] = test: Resistance selection by serial passage in CEM-SS cells; type: cell-based
Description: In vitro studies designed to select CMX157 resistant mutants use wild-type HIV-1 as the primary inoculum and TFV as a positive control. These studies are conducted by serial passage of HIV-1IIIB and HIV-1RF in CEM-SS cells using increasing concentrations of TFV or CMX157. Drug levels are increased following detection of viral growth at each passage using procedures known to one skilled in the art. Upon completion of each passage, the reverse transcriptase coding region of the viral genome is sequenced to identify any possible resistance-associated mutations that may have emerged within the virus pool.

[4] = Passage 1, Tenofovir 10 μM (2× IC50)
[5] = Passage 2, Tenofovir 20 μM (4× IC50)
[6] = Passage 3, Tenofovir 30 μM (6× IC50)
[7] = Passage 4, Tenofovir 40 μM (8× IC50)
[8] = Passage 5, Tenofovir 40 μM (8× IC50)
[9] = Passage 6, Tenofovir 40 μM (8× IC50)
[10] = Passage 7, Tenofovir 45 μM (9× IC50)
[11] = Passage 8, Tenofovir 50 μM (10× IC50)
[12] = Passage 9, Tenofovir 55 μM (11× IC50)
[13] = Passage 10, Tenofovir 60 μM (12× IC50)

SMILES: C[C@H](Cn1cnc2c(N)ncnc21)OCP(=O)(O)O [TFV, (R)-9-(2-phosphonylmethoxypropyl)adenine]
- levels associated with the viral pellets (HIV-1IIIB [1]): ≈ 100 molecules/virion
- Antagonism Volume, Result 1 (HIV-1IIIB [2]): −0.53 nM^2 %, μM^2 % or nMμM %
- Antagonism Volume, Result 2 (HIV-1IIIB [2]): 0 nM^2 %, μM^2 % or nMμM %
- Antagonism Volume, Result 3 (HIV-1IIIB [2]): 0 nM^2 %, μM^2 % or nMμM %
- Mean Antagonism Volume (n = 3) (HIV-1IIIB [2]): −0.18 nM^2 %, μM^2 % or nMμM %
- Mean Synergy Volume (n = 3) (HIV-1IIIB [2]): 28.4 nM^2 %, μM^2 % or nMμM %
- Synergy Volume, Result 1 (HIV-1IIIB [2]): 17.6 nM^2 %, μM^2 % or nMμM %
- Synergy Volume, Result 2 (HIV-1IIIB [2]): 37.2 nM^2 %, μM^2 % or nMμM %
- Synergy Volume, Result 3 (HIV-1IIIB [2]): 30.3 nM^2 %, μM^2 % or nMμM %
- passage by which K65R was selected (HIV-1IIIB [3]): ≤ 8 passage
- Comments (virus replication) (HIV-1IIIB [3]; [4]): Low-level virus replication observed
- Day of Peak Virus Production (HIV-1IIIB [3]; [4]): Day 6
- Peak RT activity (HIV-1IIIB [3]; [4]): (3,525 cpm)
- Comments (virus replication) (HIV-1IIIB [3]; [5]): Low-level virus replication observed
- Day of Peak Virus Production (HIV-1IIIB [3]; [5]): Day 7
- Peak RT activity (HIV-1IIIB [3]; [5]): (2,016 cpm)
- Comments (virus replication) (HIV-1IIIB [3]; [6]): Low-level virus replication observed
- Day of Peak Virus Production (HIV-1IIIB [3]; [6]): Day 14
- Peak RT activity (HIV-1IIIB [3]; [6]): (2,062 cpm)
- Comments (virus replication) (HIV-1IIIB [3]; [7]): Low-level virus replication observed
- Day of Peak Virus Production (HIV-1IIIB [3]; [7]): Day 6
- Peak RT activity (HIV-1IIIB [3]; [7]): (3,109 cpm)
- Comments (virus replication) (HIV-1IIIB [3]; [8]): Low-level virus replication observed;
- Day of Peak Virus Production (HIV-1IIIB [3]; [8]): Day 14
- Peak RT activity (HIV-1IIIB [3]; [8]): (1,788 cpm)
- Comments (virus replication) (HIV-1IIIB [3]; [9]): Robust virus replication observed;
- Day of Peak Virus Production (HIV-1IIIB [3]; [9]): Day 19
- Peak RT activity (HIV-1IIIB [3]; [9]): (23,508)
- Comments (virus replication) (HIV-1IIIB [3]; [10]): Robust virus replication observed; minor
- Day of Peak Virus Production (HIV-1IIIB [3]; [10]): Day 7
- Peak RT activity (HIV-1IIIB [3]; [10]): (24,408 cpm)
- Comments (virus replication) (HIV-1IIIB [3]; [11]): Robust virus replication observed; E404D
- Day of Peak Virus Production (HIV-1IIIB [3]; [11]): Day 9
- Peak RT activity (HIV-1IIIB [3]; [11]): (57,455 cpm)
- Comments (virus replication) (HIV-1IIIB [3]; [12]): Robust virus replication observed;
- Day of Peak Virus Production (HIV-1IIIB [3]; [12]): Day 11
- Peak RT activity (HIV-1IIIB [3]; [12]): (25,458 cpm)
- Comments (virus replication) (HIV-1IIIB [3]; [13]): Robust virus replication observed;
- Day of Peak Virus Production (HIV-1IIIB [3]; [13]): Day 7
- Peak RT activity (HIV-1IIIB [3]; [13]): (31,549 cpm)

Reference: patent US8993542B2, “Methods of treating viral infections” (priority 2008, dated 2015)
